pEC50, pIC50: −log10 of the molar value. Entries after “also recorded” stand apart in the source; their conditions may differ. Like-named read-outs stand apart in the source and are kept apart here.
What was measured:
[1] = test system: CEM-CCRF human lymphoblast cells; assay: Transwell migration assay in CEM-CCRF lymphoblasts; format: cell-based
Protocol: Thus, to confirm CXCR4 functional activity, UCUF-728 was evaluated in a 96 w transwell migration assay in CEM human lymphoblast cells.
CEM-CCRF (ATCC CCL-119) were suspended in RPMI 1640 (Corning; 10-040-CV) at 5.0×10^5 cells/mL and allowed to incubate in cell culture incubator at 37° C. with 5% CO2 for one hour. […] Plates were reassembled and placed in a cell culture incubator at 37° C. with 5% CO2 for three hours. After incubation, Multi-Screen plate was disassembled and 100 μl of solution was collected from compound receiver tray and transferred to 96 well luminescent plate (Thermo Scientific; 265302) and an equal volume of ATPLite Istep luminescence reagent (Perkin Elmer, Waltham, MA; 6016731) was added to each well. Luminescence was measured using the CLARIOstar Plus (BMG LABTECH Inc., Cary, NC).

CXCR4 [2] = target: T1, CXCR4 (Homo sapiens, UniProt P61073); assay: cAMP signaling assay, oxazole scaffold (forskolin-induced adenylate cyclase, CHO-K1 CXCR4 cells); format: cell-based; design: host or cells: CHO-K1
T1 sequence (P61073 whole entry): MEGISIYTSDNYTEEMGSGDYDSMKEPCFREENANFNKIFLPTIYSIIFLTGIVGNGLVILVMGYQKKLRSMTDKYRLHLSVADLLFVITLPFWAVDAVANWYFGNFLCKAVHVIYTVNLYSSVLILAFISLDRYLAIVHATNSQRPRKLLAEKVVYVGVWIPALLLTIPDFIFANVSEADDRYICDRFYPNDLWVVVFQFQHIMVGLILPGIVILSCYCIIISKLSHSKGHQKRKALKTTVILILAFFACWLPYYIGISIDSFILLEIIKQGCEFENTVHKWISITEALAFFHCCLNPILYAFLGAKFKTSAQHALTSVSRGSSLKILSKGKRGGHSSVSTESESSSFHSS
Protocol: The CXCR4 receptor is a G-protein coupled receptor (GPCR) coupled to the Gi class, whose primary role is inhibition of adenylate cyclase. The ability of UCUF-728 to induce Gi-mediated cAMP-inhibitory cellular response was tested.
Forskolin at final concentration of […] was added to all wells using the TECAN dispenser. […] PathHunter CHO-K1 CXCR4 cells (DiscoverX, Fremont, CA) were added to compounds at 3,000 cells/well, centrifuged at 1000 rpm for 30 sec and incubated for 30 min at room temperature. DMSO (Sigma Aldrich, St. Louis, MO) was normalization to 0.5%. 5 μL of 4× Eu-cAMP tracer working solution was added to all wells followed by addition of 5 μL of 4× Ulight-anti-cAMP working solution to all wells. Plates were centrifuged at 1000 rpm for 1 min and incubated for 1 hr at room temperature then read using CLARIOstar Plus (BMG LABTECH Inc., Cary, NC) Lance CAMP protocol.

CXCR4 [3] = target: T1, CXCR4; assay: Adenylate cyclase (cAMP inhibition) assay, thiadiazine scaffold, CHO-CXCR4-cAMP cells; format: cell-based; design: host or cells: CHO-K1
Protocol: Tango™ CXCR4-bla U2OS Cells (Invitrogen; K1779) were used for (β-arrestin recruitment assays and maintained as a monolayer culture in McCoy's 5a (Corning; 10-050-CV) supplemented with 10% dialyzed Fetal Bovine Serum (Gibco; 26400-044), 0.1 mM MEM Non-essential amino acids solution, 25 mM HEPES solution (Corning; 25-060-CI), 1 mM Sodium Pyruvate (Gibco; 11360-070), 200 μg/mL Zeocin selection reagent (Gibco; R25001), 50 μg/mL Hygromycin B (Gibco, 10687010), and 100 μg/mL Geneticin (G418 Sulfate) (Gibco, 10131035). U2OS cells were subcultured twice weekly by 0.05% Trypsin-EDTA treatment (Corning; 25-051-CI) and passaged to continue exponential growth phase for cell signaling assays. All cell cultures were maintained in cell culture incubators at 37° C. with 5% CO2. CHO-K1 CXCR4 cells (DiscoverX, Fremont, CA, USA) were used for cAMP inhibition assays and maintained as a monolayer culture in DMEM/F12 (Corning; 10-091-CV) supplemented with 10% Fetal Bovine Serum (Corning; 35-011-CV) and 100IU penicillin, […] streptomycin sulfate (Corning; 30-002-CI) and […] G418 (Gibco; 101310350. Cells were subculture 2 times weekly by o.o5% Trypsin-EDTA treatment (Corning; 25-051-CI) and passaged to continue exponential growth phase for cell signaling assays. All cell cultures were maintained in cell culture incubators at 37° C. with 5% CO2.CEM-CCRF cells (ATCC CCL-119) were used in both the migration and calcium flux assays and were cultured in growth media consisting of RPMI 1640 (Corning; 10-040-CV) supplemented with 10% Fetal Bovine Serum (Corning; 35-011-CV), and 100 IU penicillin, […] streptomycin sulfate (Corning; 30-002-CI). […] Cells were harvested for use in migration and calcium flux assays at 2.0×10^6 cells/mL to 2.5×10^6 cells/mL and resuspended in assay media to desired density for respective experiments.
Compounds and DMSO normalization to 0.5% were dispensed using the TECAN D300e digital dispenser into the wells of a 384-well white wall clear-bottom assay plate (Griener 781983). […] This cell suspension was dispensed at 20 μL per well into the assay plate and allowed to incubate overnight for approximately 18 hrs with compounds in cell culture incubator at 37° C. with 5% CO2. Following incubation, DMEM/F12 media was gently removed, then the Lance Ultra cAMP Kit (Perkin Elmer; TRF0263) was performed according to the supplier guidelines. […] Time-resolved fluorescence was measured on the BMG LABTECH CLARIOstar Plus (BMG LABTECH Inc., Cary, NC) using the Lance Ultra cAMP kit guidelines for excitation and emission. […]

CXCR4 [4] = target: T1, CXCR4; assay: Tag-Lite CXCR4 binding assay (displacement of fluorescent SDF-1α)
Protocol: Binding activity was measured using the Cisbio Tag-Lite Chemokine CXCR4 system (CisBio, Bedford, MA). […] Following three-hour incubation, HTRF measurements were taken using the BMG LABTECH CLARIOstar Plus (BMG LABTECH Inc., Cary, NC) with emission signals set to the Cisbio Tag-Lite Binding Assay supplier guidelines. HTRF ratio calculations completed according to supplier guidelines.

CXCR4 [5] = target: T1, CXCR4; assay: β-arrestin recruitment, 384-well, Tango CXCR4-bla U2OS cells, normalized to SDF-1α; format: cell-based; design: host or cells: U2OS; settings: normalized to SDF-1α; read-out: ß-arrestin recruitment EC50
Protocol: Tango™ CXCR4-bla U2OS Cells (Invitrogen; K1779) were used for (β-arrestin recruitment assays and maintained as a monolayer culture in McCoy's 5a (Corning; 10-050-CV) supplemented with 10% dialyzed Fetal Bovine Serum (Gibco; 26400-044), 0.1 mM MEM Non-essential amino acids solution, 25 mM HEPES solution (Corning; 25-060-CI), 1 mM Sodium Pyruvate (Gibco; 11360-070), 200 μg/mL Zeocin selection reagent (Gibco; R25001), 50 μg/mL Hygromycin B (Gibco, 10687010), and 100 μg/mL Geneticin (G418 Sulfate) (Gibco, 10131035). U2OS cells were subcultured twice weekly by 0.05% Trypsin-EDTA treatment (Corning; 25-051-CI) and passaged to continue exponential growth phase for cell signaling assays. All cell cultures were maintained in cell culture incubators at 37° C. with 5% CO2. CHO-K1 CXCR4 cells (DiscoverX, Fremont, CA, USA) were used for cAMP inhibition assays and maintained as a monolayer culture in DMEM/F12 (Corning; 10-091-CV) supplemented with 10% Fetal Bovine Serum (Corning; 35-011-CV) and 100IU penicillin, […] streptomycin sulfate (Corning; 30-002-CI) and […] G418 (Gibco; 101310350. Cells were subculture 2 times weekly by o.o5% Trypsin-EDTA treatment (Corning; 25-051-CI) and passaged to continue exponential growth phase for cell signaling assays. All cell cultures were maintained in cell culture incubators at 37° C. with 5% CO2.CEM-CCRF cells (ATCC CCL-119) were used in both the migration and calcium flux assays and were cultured in growth media consisting of RPMI 1640 (Corning; 10-040-CV) supplemented with 10% Fetal Bovine Serum (Corning; 35-011-CV), and 100 IU penicillin, […] streptomycin sulfate (Corning; 30-002-CI). Cells were maintained in suspension and sub-cultured twice weekly to maintain cell densities between 0.8×10^6 cells/mL and 2.5×10^6 cells/mL to maintain exponential growth phase. Cells were harvested for use in migration and calcium flux assays at 2.0×10^6 cells/mL to 2.5×10^6 cells/mL and resuspended in assay media to desired density for respective experiments.
Tango™ CXCR4-bla U2OS Cells were resuspended in assay media consisting of DMEM (Corning; Corning, NY) supplemented with 1% dialyzed Fetal bovine serum, 0.1 mM MEM Non-essential amino acids solution, 25 mM HEPES solution (Corning; Corning, NY), 1 mM Sodium Pyruvate and 100 IU penicillin, […] streptomycin sulfate (Corning; Corning, NY) at a density of 3.0×10^5 cells/ml. Assay media FreeStyle 293 expression Medium (Gibco; 12338018) was used for testing the thiadiazine scaffold CXCR4 agonists. Cells suspension was dispensed at 30 μl per well into assay plate and incubated overnight in a cell culture incubator at 37° C. with 5% CO2. […] Following overnight incubation, LiveBlazer FRET B/G Loading Kit (Invitrogen; K1095) working reagent was prepared according to supplier guidelines and 6 μl of solution was dispensed into each well; 8 μL of solution for testing the thiadiazine scaffold CXCR4 agonists. Assay plate was covered and incubated in a dark place for two hours and Fluorescence Intensity was measured using the BMG LABTECH CLARIOstar Plus (BMG LABTECH Inc., Cary, NC) according to the LiveBlazer FRET B/G Loading Kit excitation and emission measurement guidelines.
Results are expressed as mean±SD for 3 to 5 independent experiments. Statistically significant differences in gene expression between two groups were assessed by Student's T-test, ANOVA with an appropriate post hoc test was be used for multiple comparisons. P<0.05 was considered to be statistically significant. All concentration response curves were analyzed to determine EC50 and Emax using the following equation:
where Y is the normalized response (0-100%), X is the log of concentration of compound tested, and the Hill slope is equal to 1.0% and 100% activity are specific to each assay. […]

## c1cc(CN2CCCNCCNCCCNCC2)ccc1CN1CCCNCCNCCCNCC1 [AMD3100, reference compound]
[1]
  migration activity (words): blocked; also recorded: completely blocks SDF-1α induced migration; also recorded: unable to inhibit UCUF-965-induced migration; also recorded: does not inhibit the migratory response of CEM-CCRF cells induced by UCUF-965
[1]; Homo sapiens, read-out: logIC50, inhibition of migration (converted)
  IC50: 31.6 nM
[1]; listed as AMD 3100
  migration activity (words): able to inhibit the migration response induced by SDF-1α
CXCR4 [2]
  cAMP signaling / forskolin-induced adenylate cyclase: dose-dependently blocked; also recorded: dose-dependent inhibition of 40 nM SDF-1α
CXCR4 [3]
  cAMP inhibition activity: reduces the activity of SDF-1α to inhibit cAMP
CXCR4 [3]; read-out: SDF-1α Emax reduced to, in the presence of 1 μM AMD3100
  Emax: 40%
CXCR4 [4]
  displacement of SDF-1α binding: dose-dependently displaced SDF-1α; also recorded: dose-dependently displaced SDF-1a saturation binding; also recorded: dose-dependently inhibited SDF-1α saturation binding

## CCOc1ccccc1-c1nnc2n1N=C(c1ccc(N3CCCC3)cc1)CS2 [Entry 23]
CXCR4 [3]; inhibition of forskolin-stimulated cAMP
  pEC50: 7.30
CXCR4 [5]
  pEC50: 7.70

## CCOc1ccccc1-c1nnc2n1N=C(c1ccc(N3CCCC3=O)cc1)CS2 [compound 63]
[1]
  migration activity (words): partial agonist activity
CXCR4 [3]
  cAMP inhibition activity: partial agonist activity

## SDF-1α
CXCR4 [2]
  cAMP signaling / forskolin-induced adenylate cyclase: inhibited forskolin-induced adenylate cyclase
CXCR4 [3]; CXCR4 overexpressing CHO cells, read-out: IC50, inhibition of forskolin-stimulated cAMP production
  pIC50: 8.82
CXCR4 [3]; log value
  log IC50, inhibition of forskolin-stimulated cAMP production: −8.9±0.1 M
